≈ marks a conversion by molar mass, not a printed value.
Experiments:
[1] = visual solubility test (apparent solubility in different excipients); format: physicochemical; settings: for solubility: thermodynamic from solid
Protocol: Subsequently in order to analyze the solubility of the anilinopyrimidine of Formula (I) and to identify the preferred excipients, ten solutions of batch FD050007 and ten solution of the starting batch 61569-02 were prepared and analized with a visual solubility test.
A data summary for the anilinopyrimidine derivative of Formula (I) apparent solubility in different excipients is given in Table 2.

[2] = system: primary fresh cells from Acute Myeloid Leukemia (AML) patients; settings: most primary fresh cells from AML patients; cited from earlier work
[3] = in Cremophor EL (castor oil-ethylene oxide)
[4] = in Labrafil M1944CS (oleoyl macrogol glyceride)

SMILES | solubility ([1]; HP-β-CD, aqueous with cosolvent or surfactant or cyclodextrin, in HP-β-CD) [mg/mL] | solubility ([1]; Labrasol (caprylocapryoyl macrogol glyceride), oil or lipid, in Labrasol (caprylocapryoyl macrogol glyceride)) [mg/mL] | solubility ([1]; Transcutol HP, organic solvent or mixture, in Transcutol HP) [mg/mL] | apparent solubility ([1]; in Capmul GMO-50) [mg/mL] | apparent solubility ([1]; in Capmul MCM C10 (glyceril monocaprate)) [mg/mL] | apparent solubility ([1]; in Capmul MCM-Lutrol E600 1:1) [mg/mL] | apparent solubility [1, 3] | apparent solubility [1, 4] | apparent solubility ([1]; in Lutrol E600 (PEG 600)) [mg/mL] | apparent solubility ([1]; in Vitamin E TPGS) | solubility ([1]; Capmul GMO-50, oil or lipid, in Capmul GMO-50) [mg/mL] | solubility ([1]; Capmul MCM C10 (glyceril monocaprate), oil or lipid, in Capmul MCM C10 (glyceril monocaprate)) [mg/mL] | solubility ([1]; Capmul MCM-Lutrol E600 1:1, organic solvent or mixture, in Capmul MCM-Lutrol E600 1:1) [mg/mL] | solubility ([1]; Lutrol E600 (PEG 600), organic solvent or mixture, in Lutrol E600 (PEG 600)) [mg/mL] | apparent solubility ([1]; in Labrasol (caprylocapryoyl macrogol glyceride)) | apparent solubility ([1]; in Transcutol HP) | cell death [2] | solubility, milled versus starting batch ([1]; in particular in Capmul MCM C10, Lutrol E600 and Capmul MCM-Lutrol E600 1:1)
CC(=O)N1CCN(C(=O)c2ccc(Nc3nccc(-c4ccc(Cl)cc4)n3)cc2)CC1 [FD050007, 1-(4{4-[4-(4-Chloro-phenyl)-pyrimidin-2-ylamino]-benzoyl}-piperazin-1-yl)-ethanone] | 5.75 (≈ 13.2 mM) | 26.3 (≈ 60.3 mM) | 26.2 (≈ 60.1 mM) | 19.6 | 54 | 115 | Suspension | Suspension | 115 | Solid |  |  |  |  |  |  |  | 
CC(=O)N1CCN(C(=O)c2ccc(Nc3nccc(-c4ccc(Cl)cc4)n3)cc2)CC1 [Formula 61569-02, 1-(4{4-[4-(4-Chloro-phenyl)-pyrimidin-2-ylamino]-benzoyl}-piperazin-1-yl)-ethanone] |  |  |  |  |  |  | Suspension | Suspension |  | Solid | 20.2 | 59.5 | 115 | 104 | Suspension | Suspension |  | 
CC(=O)N1CCN(C(=O)c2ccc(Nc3nccc(-c4ccc(Cl)cc4)n3)cc2)CC1 [Formula (I), 1-(4{4-[4-(4-Chloro-phenyl)-pyrimidin-2-ylamino]-benzoyl}-piperazin-1-yl)-ethanone] |  |  |  |  |  |  |  |  |  |  |  |  |  |  |  |  | induces cell death | better solubility when milled
